# In US20240228555A9, “ANTIMICROBIAL PEPTIDOMIMETICS” (Basilea Pharmaceutica International AG, Allschwil, priority 2020, published 2024):
# Where two headings read alike, the source gives them in different places. Where a SMILES comes first, the peptide text is derived from it.
# Key:
# [1] = test system: Escherichia coli MCR-1 Af 45; conditions: Mueller-Hinton broth II, no visible growth after 18-20 hours at 35° C.
# Description: (§1) Lyophilized peptides were weighed on a Microbalance (Mettler MT5) and dissolved in sterile water to a final concentration of 1 mg/mL. Stock solutions were kept at +4° C., light protected.
# (§2) Colonies of the microorganisms were diluted in saline (0.85%, NaCl) and adjusted using a McFarland reader (bioMérieux SA, Marcy-l'Etoile, France) to 0.5 McFarland standard. Subsequently, the bacterial suspension was diluted in Mueller-Hinton II (MHII, cation adjusted) broth to give approximately 5×10^5 colony forming units (CFU/mL).
# (§3) 10^6 colony forming units (CFU)/mL. Aliquots (90 μl) of inoculate were added to 10 μl of water+P-80 (Polysorbate 80, 0.002% final concentration) containing the peptide in serial two-fold dilutions at 10 fold final concentration. The following microorganisms were used to determine antibiotic selectivity of the peptides: Escherichia coli ATCC 25922, Escherichia coli MCR-1 Af 45 and Klebsiella pneumoniae SSI3010.
# [2] = test system: Escherichia coli ATCC 25922
# Description: as §1, §2, §3
# [3] = test system: Klebsiella pneumoniae SSI3010
# Description: as §1, §2, §3
# [4] = test system: human red blood cells (hRBC); type: cell-based; conditions: red cells of human, 1 h, 0.2 g/L
# Description: as §1
# The peptides were tested for their hemolytic activity against human red blood cells (hRBC). Fresh hRBC were washed three times with phosphate buffered saline (PBS) and centrifuged for 5 min at 3000×g. Compounds (200 μg/mL) were incubated with 20% hRBC (v/v) for 1 h at 37° C. and shaking at 300 rpm. A value of 0% and 100% cell lyses, respectively, was determined by incubation of hRBC in the presence of PBS and 2.5% Triton X-100 in H2O, respectively. The samples were centrifuged, the supernatants were 8-fold diluted in PBS buffer and the optical densities (OD) were measured at 540 nm. The 100% lyses value (OD540H2O) gave an OD540 of approximately 0.5-1.0.
# Percent hemolysis was calculated as follows: (OD540peptide/OD540H2O)×100%.
# [5] = Mueller-Hinton broth II, no visible growth after 18-20 hours at 35° C.
structure (smiles),measurement,setting,value
"CC[C@H](C)[C@H](NC(=O)[C@@H]1C[C@@H](N)CN1C(=O)[C@@H](N)C(C)C)C(=O)N[C@H](C(=O)N[C@@H](Cc1ccc(O)cc1)C(=O)N[C@@H]1C(=O)N[C@@H](CC(N)=O)C(=O)N[C@@H](CCCNC(=N)N)C(=O)N[C@@H](CCN)C(=O)N[C@@H]([C@@H](C)O)C(=O)N[C@H](CCN)C(=O)N[C@@H](CCCNC(N)=O)C(=O)N[C@H](C(=O)N[C@@H](CCN)C(=O)N[C@H](C(=O)N[C@@H](Cc2ccc(O)cc2)C(=O)O)[C@@H](C)O)CSSC1(C)C)[C@@H](C)O [Example 116, Val-Pro((4R)NH2)-Ile-Thr-Tyr-Pen-Asn-Arg-Dab-Thr-^DDab-Cit-Cys-Dab-Thr-Tyr] (HELM PEPTIDE1{V.[N[C@@H]1C[C@@H](C(=O)[*:2])N([*:1])C1].I.T.Y.[Pen].N.R.[Dab].T.[NCC[C@@H](N[*:1])C(=O)[*:2]].[Cit].C.[Dab].T.Y}$PEPTIDE1,PEPTIDE1,6:R3-13:R3$$$V2.0)",Escherichia coli MCR-1 Af 45 MIC,[1],0.25 µg/mL
same,Escherichia coli ATCC 25922 MIC,[2]; ATCC 25922,0.25 µg/mL
same,Klebsiella pneumoniae SSI3010 MIC,[3]; SSI3010,0.5 µg/mL
same,Hemolysis at 0.2 g/L,[4],<1%
"CC[C@H](C)[C@H](NC(=O)[C@@H]1C[C@@H](O)CN1C(=O)[C@@H](N)C(C)C)C(=O)N[C@@H](CCCN)C(=O)N[C@@H](Cc1ccc(O)cc1)C(=O)N[C@@H]1C(=O)N[C@@H](CC(N)=O)C(=O)N[C@@H](CCCNC(=N)N)C(=O)N[C@@H](CCN)C(=O)N[C@@H]([C@@H](C)O)C(=O)N[C@H](CCN)C(=O)N[C@@H](CCCCN)C(=O)N[C@H](C(=O)N[C@@H](CCN)C(=O)N[C@H](C(=O)N[C@@H](Cc2ccc(O)cc2)C(=O)O)[C@@H](C)O)CSSC1(C)C [Example 122, Val-Hyp-Ile-Orn-Tyr-Pen-Asn-Arg-Dab-Thr-^DDab-Lys-Cys-Dab-Thr-Tyr] (HELM PEPTIDE1{V.[Hyp].I.[Orn].Y.[Pen].N.R.[Dab].T.[NCC[C@@H](N[*:1])C(=O)[*:2]].K.C.[Dab].T.Y}$PEPTIDE1,PEPTIDE1,6:R3-13:R3$$$V2.0)",Escherichia coli MCR-1 Af 45 MIC,[1],0.125 µg/mL
same,Escherichia coli ATCC 25922 MIC,[2]; ATCC 25922,0.25 µg/mL
same,Klebsiella pneumoniae SSI3010 MIC,[3]; SSI3010,0.5 µg/mL
same,Hemolysis at 0.2 g/L,[4],<1%
"CC[C@H](C)[C@@H]1NC(=O)[C@@H](NC(=O)[C@H](Cc2ccc(O)cc2)NC(=O)[C@@H](NC(=O)[C@@H](NC(=O)[C@@H]2C[C@@H](O)CN2C(=O)[C@@H](N)C(C)C)[C@@H](C)CC)[C@@H](C)O)C(C)(C)SSC[C@@H](C(=O)N[C@@H](CO)C(=O)N[C@@H](CCCN)C(=O)N[C@@H](Cc2ccc(O)cc2)C(=O)O)NC(=O)[C@H](CCCCN)NC(=O)[C@@H](CCN)NC(=O)[C@H]([C@@H](C)O)NC(=O)[C@H](CCN)NC(=O)[C@H](CCCNC(=N)N)NC1=O [Example 92, Val-Hyp-Ile-Thr-Tyr-Pen-Ile-Arg-Dab-Thr-^DDab-Lys-Cys-Ser-Orn-Tyr] (HELM PEPTIDE1{V.[Hyp].I.T.Y.[Pen].I.R.[Dab].T.[NCC[C@@H](N[*:1])C(=O)[*:2]].K.C.S.[Orn].Y}$PEPTIDE1,PEPTIDE1,6:R3-13:R3$$$V2.0)",Escherichia coli MCR-1 Af 45 MIC,[1],0.125 µg/mL
same,Escherichia coli ATCC 25922 MIC,[2]; ATCC 25922,0.25 µg/mL
same,Klebsiella pneumoniae SSI3010 MIC,[3]; SSI3010,0.5 µg/mL
same,Hemolysis at 0.2 g/L,[4],<1%
"CCCC[C@H](NC(=O)[C@H](CCCNC(=N)N)NC(=O)[C@H](CCN)NC(=O)[C@@H]1CSSC(C)(C)[C@H](NC(=O)[C@H](Cc2ccc(O)cc2)NC(=O)[C@@H](NC(=O)[C@@H](NC(=O)[C@@H]2C[C@@H](N)CN2C(=O)[C@@H](N)C(C)C)[C@@H](C)CC)[C@@H](C)CC)C(=O)N[C@@H](CC(N)=O)C(=O)N[C@@H](CCCNC(=N)N)C(=O)N[C@@H](CCCNC(=N)N)C(=O)N[C@@H]([C@@H](C)O)C(=O)N[C@H](CCN)C(=O)N[C@@H](CCCCN)C(=O)N1)C(=O)O [Example 2, Val-Pro((4R)NH2)-Ile-Ile-Tyr-Pen-Asn-Arg-Arg-Thr-^DDab-Lys-Cys-Dab-Arg-Nle] (HELM PEPTIDE1{V.[N[C@@H]1C[C@@H](C(=O)[*:2])N([*:1])C1].I.I.Y.[Pen].N.R.R.T.[NCC[C@@H](N[*:1])C(=O)[*:2]].K.C.[Dab].R.[Nle]}$PEPTIDE1,PEPTIDE1,6:R3-13:R3$$$V2.0)",Escherichia coli ATCC 25922 MIC,[2]; [5],0.0625 µg/mL
same,Klebsiella pneumoniae SSI3010 MIC,[3]; [5],0.125 µg/mL
same,Hemolysis at 0.2 g/L,[4],0%
"CC[C@H](C)[C@H](NC(=O)[C@@H](NC(=O)[C@@H]1CCCN1C(=O)[C@@H](NC(=N)N)C(C)C)[C@@H](C)CC)C(=O)N[C@@H](Cc1ccc(O)cc1)C(=O)N[C@@H]1C(=O)N[C@@H](CC(N)=O)C(=O)N[C@@H](CCCNC(=N)N)C(=O)N[C@@H](CCN)C(=O)N[C@@H]([C@@H](C)O)C(=O)N[C@H](CCN)C(=O)N[C@@H](CCCCN)C(=O)N[C@H](C(=O)N[C@@H](CCN)C(=O)N[C@@H](CCCNC(=N)N)C(=O)N[C@@H](Cc2ccc(O)cc2)C(=O)O)CSSC1(C)C [Example 54, Gua-Val-Pro-Ile-Ile-Tyr-Pen-Asn-Arg-Dab-Thr-^DDab-Lys-Cys-Dab-Arg-Tyr] (HELM PEPTIDE1{[CC(C)[C@H](NC(=N)N)C(=O)[*:2]].P.I.I.Y.[Pen].N.R.[Dab].T.[NCC[C@@H](N[*:1])C(=O)[*:2]].K.C.[Dab].R.Y}$PEPTIDE1,PEPTIDE1,6:R3-13:R3$$$V2.0)",Escherichia coli ATCC 25922 MIC,[2]; [5],0.125 µg/mL
same,Klebsiella pneumoniae SSI3010 MIC,[3]; [5],0.125 µg/mL
same,Hemolysis at 0.2 g/L,[4],0%
"CC[C@H](C)[C@H](NC(=O)[C@@H](NC(=O)[C@@H]1CCCN1C(=O)[C@@H](N)C(C)C)[C@@H](C)CC)C(=O)N[C@@H](Cc1ccc(O)cc1)C(=O)N[C@@H]1C(=O)N[C@@H](CC(N)=O)C(=O)N[C@@H](CCCNC(=N)N)C(=O)N[C@@H](CCN)C(=O)N[C@@H]([C@@H](C)O)C(=O)N[C@H](CCN)C(=O)N[C@@H](CCCCN)C(=O)N[C@H](C(=O)N[C@@H](CCN)C(=O)N[C@@H](CCCNC(=N)N)C(=O)N[C@@H](Cc2ccc(O)cc2)C(=O)O)CSSC1(C)C [Example 7, Val-Pro-Ile-Ile-Tyr-Pen-Asn-Arg-Dab-Thr-^DDab-Lys-Cys-Dab-Arg-Tyr] (HELM PEPTIDE1{V.P.I.I.Y.[Pen].N.R.[Dab].T.[NCC[C@@H](N[*:1])C(=O)[*:2]].K.C.[Dab].R.Y}$PEPTIDE1,PEPTIDE1,6:R3-13:R3$$$V2.0)",Escherichia coli ATCC 25922 MIC,[2]; [5],0.0625 µg/mL
same,Klebsiella pneumoniae SSI3010 MIC,[3]; [5],0.125 µg/mL
same,Hemolysis at 0.2 g/L,[4],0%
"CC[C@H](C)[C@H](NC(=O)[C@@H](NC(=O)[C@@H]1C[C@@H](O)CN1C(=O)[C@@H](N)C(C)C)[C@@H](C)CC)C(=O)N[C@@H](Cc1ccc(O)cc1)C(=O)N[C@@H]1C(=O)N[C@@H](CC(N)=O)C(=O)N[C@@H](CCCNC(=N)N)C(=O)N[C@@H](CCN)C(=O)N[C@@H]([C@@H](C)O)C(=O)N[C@H](CCN)C(=O)N[C@@H](CCCCN)C(=O)N[C@H](C(=O)N[C@@H](CCN)C(=O)N[C@@H](CCCNC(=N)N)C(=O)N[C@@H](Cc2ccc(O)cc2)C(=O)O)CSSC1(C)C [Example 14, Val-Hyp-Ile-Ile-Tyr-Pen-Asn-Arg-Dab-Thr-^DDab-Lys-Cys-Dab-Arg-Tyr] (HELM PEPTIDE1{V.[Hyp].I.I.Y.[Pen].N.R.[Dab].T.[NCC[C@@H](N[*:1])C(=O)[*:2]].K.C.[Dab].R.Y}$PEPTIDE1,PEPTIDE1,6:R3-13:R3$$$V2.0)",Escherichia coli ATCC 25922 MIC,[2]; [5],0.125 µg/mL
same,Klebsiella pneumoniae SSI3010 MIC,[3]; SSI3010,0.25 µg/mL
same,Hemolysis at 0.2 g/L,[4],0%
"CC[C@H](C)[C@H](NC(=O)[C@@H](NC(=O)[C@@H]1C[C@@H](O)CN1C(=O)[C@@H](NC(=N)N)C(C)C)[C@@H](C)CC)C(=O)N[C@@H](Cc1ccc(O)cc1)C(=O)N[C@@H]1C(=O)N[C@@H](CC(N)=O)C(=O)N[C@@H](CCCNC(=N)N)C(=O)N[C@@H](CCN)C(=O)N[C@@H]([C@@H](C)O)C(=O)N[C@H](CCN)C(=O)N[C@@H](CCCCN)C(=O)N[C@H](C(=O)N[C@@H](CCN)C(=O)N[C@@H](CCCNC(=N)N)C(=O)N[C@@H](Cc2ccc(O)cc2)C(=O)O)CSSC1(C)C [Example 56, Gua-Val-Hyp-Ile-Ile-Tyr-Pen-Asn-Arg-Dab-Thr-^DDab-Lys-Cys-Dab-Arg-Tyr] (HELM PEPTIDE1{[CC(C)[C@H](NC(=N)N)C(=O)[*:2]].[Hyp].I.I.Y.[Pen].N.R.[Dab].T.[NCC[C@@H](N[*:1])C(=O)[*:2]].K.C.[Dab].R.Y}$PEPTIDE1,PEPTIDE1,6:R3-13:R3$$$V2.0)",Escherichia coli ATCC 25922 MIC,[2]; [5],0.03125 µg/mL
same,Klebsiella pneumoniae SSI3010 MIC,[3]; [5],0.0625 µg/mL
same,Hemolysis at 0.2 g/L,[4],0%
